1 compound from patent publication US20200046620A1, “Solid Compositions for Teeth Whitening and Anti-Microbial Effects” (Colgate-Palmolive Company, priority 2018, published 2020) can be followed below.

The nature of the assay: pH-dependent bleaching of Lissamine green B dye by NaDCC. Format: physicochemical. Conditions: 10 mg NaDCC in 20 mL. As for the experimental part:
Two different solutions, Solution A and Solution B, were prepared. Solution A contained 2% SAPP, 0.1% Lissamine green B dye, and 97.9% water. Solution B contained 2% tetrasodium pyrophosphate (TSPP), 0.1% Lissamine green B dye, and 97.9% water. Next, solutions with various pHs were obtained by mixing the two different solutions A and B, in different volume ratios (i.e., 1:0, 1:5, 1:1, 5:1, and 0:1). 20 mL of the resulting solutions were added to 10 mg NaDCC, and the time required to bleach away all of the Lissamine green B color was recorded.

As to `O=c1nc([O-])n(Cl)c(=O)n1Cl.[Na+]` [NaDCC, sodium dichloroisocyanurate], the Time to bleach result is “Instantaneous” (Mix Solution 1, VA:VB 1:0, pH 4.6); 0.25 min (Mix Solution 2, VA:VB 1:5, pH 5.8); 8 min (Mix Solution 3, VA:VB 1:1, pH 7.4); 35 min (Mix Solution 4, VA:VB 5:1, pH 8.8); 80 min (Mix Solution 5, VA:VB 0:1, pH 10.5).
